# In patent US4839380A, “1-Thiocarbamoylmethylpyrrolidine-2-thione, medical compositions of, and anti-hypoxic and nootropic use thereof” (priority 1988, dated 1989):
# Legend:
# rats = test: Learning speed and performing of electrodefensive conditioned reflex of avoidance; format: in vivo, rats (nondescript male)
# Excerpt: (§1) The study of the compound according to the present invention for the speed of learning and performing the produced conditioned reflux was effected in experiments on rats using the method of electrodefensive conditioned reflexes of avoidance.
# The study of the effect on the learning speed and fulfilment of the elaborated conditioned reflex was effected on 40 nondescript male rats with a mass of 150170 g (4 groups of 10 rats in each) by the method of electrodefensive conditioned reflexes. Conditioned reflexes were trained in all rats for ringing used as a conditional irritation signal supported by a non-conditional irritating agent--electric current (40-50 V) supplied to an electrified floor of a conditioned-reflex chamber. As the criterion for the elaboration of the conditioned reflex the rat's jump onto a stand in response to switching-on of a bell during the first 10 seconds after the beginning of the sound was assumed.
# All rats, against the background of elaboration of conditioned reflexes, were administered over 3 weeks (5 times a week) with: the first group--the compound according to the present invention in the dose of 250 mg/kg; the second and third group--pyracetam in the doses of 500 and 1,000 mg/kg; and the fourth group--control--isotonic solution of sodium chloride. The administration was effected intraperiotoneally 24 hours before the experiment.
# [1] = Learning speed, performing of conditional reflex and memory consolidation (overall); format: in vivo, rats and mice; settings: conditional reflex, memory consolidation, versus pyracetam
# Description: The compound according to the present invention was also tested for the effect produced thereby on processes of learning and memorizing.
# as §1
# In experiments on mice the compound according to the present invention was tested for the effects produced thereby on processes of memory consolidation according to the results of investigation of the conditional response of passive avoidance.
# mice [2] = test: Toxicity and general effect; format: in vivo
# Description: The study of toxicity and a general effect of the compound according to the present invention was effected on mice with a mass of 18-20 g upon an intraperitoneal administration of the compound according to the present invention in doses of from 100 to 1.500 mg/kg.
# rats' cerebral cortex = test: Acute repeating anoxia (asphyxial hypoxia): electrical activity of the cerebral cortex of rats; format: in vivo
# Description: The studies were conducted on a model of an acute repeating anoxia.
# The studies were carried out in experiments on rats with a mass of 180-200 g with nichrome electrodes in the brain (cerebral) cortex; after tracheostomy the animals were connected to the artificial-breathing apparatus. Anoxia was induced by repeatedly switching-off the breathing for 90, 120, 150 and 180 seconds with 10-minutes' intervals therebetween. Electrocardiogram and electrocorticogram were recorded. 53 rats altogether were used in the experiments. The antihypoxic activity of the compound according to the present invention in comparison with pyracetam was assessed by the following parameters:
# I--time till the disappearance of a cortex electrical activity after discontinuation of oxygen supply;
# II--time till the appearance of an electrocorticogram after renewal of breathing;
# III--total time of electrical "silence" of the cortex
# for each of the successive anoxiae.
# The results of the experiments were statistically evaluated using Student's T-criterion.
# mice [3] = test: Memory consolidation: conditioned reflex of passive avoidance in a two-chamber unit; format: in vivo, mice (nondescript male white)
# Description: The study of the effect on processes of consolidation (fixation) of memory was carried out on 400 nondescript male white mice with a mass of 18-20 g using the procedure of a conditioned reflex of passive avoidance in a two-chamber unit, one of the chambers being darkened. In the bottom of the dark chamber an electrode floor is mounted, to which an electric current (50-60 V) can be applied.
# Due to their biological specific features, mice prefer to stay in the dark chamber. At the end of the exposure lasting for 180 seconds of the residence of an animal in the dark chamber which, as a rule, actually takes place, an electric current is applied to the irritating device and a mouse is forced to leave its shelter.
# Therefore, after a single-time training a conditioned reflex of passive avoidance is elaborated in mice. The resproduction of the effect which is evaluated by the laten period time (in seconds) of the visit to the dark chamber (or by the time of residence in the light chamber) was effected after 24 hours.
# The compound according to the present invention and pyracetam were administered in doses of 200-250 mg/kg (pyracetam also in the dose of 1,000 mg/kg) intraperitoneally right after elaboration of the conditioned reflex.
# [4] = Solubility and storage stability; format: physicochemical
# [5] = prior art; cited from earlier work
# [6] = 1st anoxia, 90 seconds, 250 mg/kg
# [7] = 1st anoxia, 90 seconds, 1.000 mg/kg
smiles,measurement,setting,value
"NC(=S)CN1CCCC1=S [Compound of the present invention, 1-thiocarbamylmethylpyrrolidine-2-thione]",acceleration of elaboration and fixation of a conditioned reflex,rats; 250 mg/kg,about 2 times
same,combinations of conditional and non-conditional irritation agents after which the reflex is fixed,rats; 250 mg/kg,49-65 combinations
same,lowering of the latent period of the conditioned reflex as compared to the control,rats; 250 mg/kg,more than 2 times
same,latent period of the conditioned reflex of avoidance,"rats; 250 mg/kg, control 2.14±0.71 s",0.87 ± 0.32 s
same,effective dose (learning and performing of conditioned response of avoidance in rats),rats; rats,250 mg/kg
same,effective doses smaller than those of pyracetam,[1],4-5 times
same,toxicity classification,mice [2]; based on LD50,low-toxic
same,dose with which suppression of a general state of the animals starts,"mice [2]; mice, intraperitoneal",250 mg/kg
same,Number of animals with retained electrocorticogram after the 1st anoxia,rats' cerebral cortex; 250 mg/kg,44.0%
same,time of recovery of the functional capacity of the brain,rats' cerebral cortex; 250 mg/kg,considerably reduced
same,extension of the time till disappearance of an electrocorticogram,"rats' cerebral cortex; 250 mg/kg, especially first and second anoxiae",~2 times
same,I--time till the disappearance of a cortex electrical activity,rats' cerebral cortex; [6],84.3 ± 1.3 s
same,II--time till the appearance of an electrocorticogram after renewal of breathing,rats' cerebral cortex; [6],3.7 ± 1.5 s
same,"III--total time of electrical ""silence"" of the cortex",rats' cerebral cortex; [6],8.9 ± 3.5 s
same,"recovery of electrical activity of the brain after the 4th anoxia, effectiveness versus pyracetam",rats' cerebral cortex; versus pyracetam,7 times
same,"retention of the electrocorticogram after the first 90-seconds' anoxia, superiority to pyracetam",rats' cerebral cortex; versus pyracetam 1.000 mg/kg,3 times
same,effective dose lower than that of pyracetam,mice [3]; 200 mg/kg versus pyracetam 1.000 mg/kg,5 times
same,minimal effective dose,"mice [3]; Mus musculus, ip, 24 h, read-out: effective dose (memory consolidation)",200 mg/kg
same,duration of the latent period of the reflex of passive avoidance,"mice [3]; ip, 200 mg/kg, 24 h",136.2 ± 6.6 s
same,efficiency of the positive influence upon dose increasing,mice [3]; up to 500 mg/kg,does not grow
same,"solubility in N,N-dimethylformamide","[4]; N,N-dimethylformamide",soluble
same,"solubility in ether, hexane","[4]; ether, hexane",insoluble
same,storage stability,[4]; storage,stable in storage
"NC(=O)CN1CCCC1=O [Pyracetam, 1-carbamidomethylpyrrolidone-2, reference compound]",effect on elaboration and fixation of a conditioned reflex,rats; 1.000 mg/kg,effect similar to that produced by the compound according to the present inventuion in the dose of 250 mg/kg
same,latent period of the conditioned reflex of avoidance,rats; 1.000 mg/kg,0.98 ± 0.29 s
same,effect on elaboration and fixation of a conditioned reflex,rats; 500 mg/kg,inactive
same,Number of animals with recovered electrocorticogram after the 4th anoxia,"rats' cerebral cortex; 1,000 mg/kg",14.3%
same,Number of animals with retained electrocorticogram after the 1st anoxia,"rats' cerebral cortex; 1,000 mg/kg",12.5%
same,Number of animals with recovered electrocorticogram after the 4th anoxia,"rats' cerebral cortex; 1,000 mg/kg, listed as pyracetam",15%
same,I--time till the disappearance of a cortex electrical activity,rats' cerebral cortex; [7],76.7 ± 4.8 s
same,II--time till the appearance of an electrocorticogram after renewal of breathing,rats' cerebral cortex; [7],5.3 ± 0.2 s
same,"III--total time of electrical ""silence"" of the cortex",rats' cerebral cortex; [7],17.8 ± 4.9 s
same,I--time till the disappearance of a cortex electrical activity,"rats' cerebral cortex; 2nd anoxia (column 6; 120 seconds), 1.000 mg/kg",85.8 ± 7.3 s
same,II--time till the appearance of an electrocorticogram after renewal of breathing,"rats' cerebral cortex; 2nd anoxia (column 7; 120 seconds), 1.000 mg/kg",21.8 ± 6.9 s
same,"III--total time of electrical ""silence"" of the cortex","rats' cerebral cortex; 2nd anoxia (column 8; 120 seconds), 1.000 mg/kg",53.3 ± 12.0 s
same,I--time till the disappearance of a cortex electrical activity,"rats' cerebral cortex; 3rd anoxia (column 9; 150 seconds), 1.000 mg/kg",95.0 ± 16.3 s
same,II--time till the appearance of an electrocorticogram after renewal of breathing,"rats' cerebral cortex; 3rd anoxia (column 10; 150 seconds), 1.000 mg/kg",67.6 ± 42.I
same,"III--total time of electrical ""silence"" of the cortex","rats' cerebral cortex; 3rd anoxia (column 11; 150 seconds), 1.000 mg/kg",131.2 ± 53.8 s
same,I--time till the disappearance of a cortex electrical activity,"rats' cerebral cortex; 4th anoxia (column 12; 180 seconds), 1.000 mg/kg",79.4 ± 23.8 s
same,extension of the latent period of the conditioned reflex of passive avoidance (control = 100%),mice [3]; 1.000 mg/kg,33.7%
same,effect on the latent period of passive avoidance,mice [3]; doses lower than 1.000 mg/kg,inactive
same,effect of extension of the latent period of the reflex of passive avoidance,"mice [3]; only in the dose of 1.000 mg/kg, pyracetam, 1,000 mg/kg",the same effect
same,stimulative effect on the mechanisms of memory consolidation and performance of conditioned reflexes,[5],absence of a pronounced stimulative effect
